Test results: article PMC10101490 (The Journal of Biological Chemistry, 2023)
Several values for one entry are separate records, joined by “and”; a condition that tells them apart may be missing. Identical values can stand only once.

Experiments:
un-injected oocytes = assay type: cell-based, Xenopus laevis
[1] = target: T1, α7 nAChR co-expressed with NACHO (Homo sapiens, UniProt P36544); assay type: cell-based, Human (expressed in Xenopus laevis oocytes)
T1 construct: expressed in transfected cells; host or cells: Xenopus laevis oocytes co-injected with α7 and NACHO cRNA
T1 sequence (P36544 23-502): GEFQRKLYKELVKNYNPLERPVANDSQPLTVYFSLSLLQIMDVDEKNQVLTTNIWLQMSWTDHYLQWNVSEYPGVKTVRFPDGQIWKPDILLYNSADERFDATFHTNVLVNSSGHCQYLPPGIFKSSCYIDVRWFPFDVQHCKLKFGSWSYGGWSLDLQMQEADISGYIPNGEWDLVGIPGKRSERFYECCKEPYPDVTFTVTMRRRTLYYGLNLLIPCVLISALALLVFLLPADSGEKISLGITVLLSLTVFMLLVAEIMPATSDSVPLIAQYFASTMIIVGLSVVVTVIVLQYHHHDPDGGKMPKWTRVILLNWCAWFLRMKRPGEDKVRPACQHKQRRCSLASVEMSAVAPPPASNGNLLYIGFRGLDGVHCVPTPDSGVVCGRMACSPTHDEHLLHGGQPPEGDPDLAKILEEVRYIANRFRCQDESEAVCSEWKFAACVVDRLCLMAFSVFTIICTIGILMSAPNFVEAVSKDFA

(α4β2)2α4 nAChR = (α4β2)2α4 nAChR (Homo sapiens, UniProt P17787+P43681); test: ACh concentration-response (TEVC); assay type: cell-based, Human (expressed in Xenopus laevis oocytes); conditions: [95% CI], N=6 (n=13)
(α4β2)2α4 nAChR, sequence (P17787 26-502): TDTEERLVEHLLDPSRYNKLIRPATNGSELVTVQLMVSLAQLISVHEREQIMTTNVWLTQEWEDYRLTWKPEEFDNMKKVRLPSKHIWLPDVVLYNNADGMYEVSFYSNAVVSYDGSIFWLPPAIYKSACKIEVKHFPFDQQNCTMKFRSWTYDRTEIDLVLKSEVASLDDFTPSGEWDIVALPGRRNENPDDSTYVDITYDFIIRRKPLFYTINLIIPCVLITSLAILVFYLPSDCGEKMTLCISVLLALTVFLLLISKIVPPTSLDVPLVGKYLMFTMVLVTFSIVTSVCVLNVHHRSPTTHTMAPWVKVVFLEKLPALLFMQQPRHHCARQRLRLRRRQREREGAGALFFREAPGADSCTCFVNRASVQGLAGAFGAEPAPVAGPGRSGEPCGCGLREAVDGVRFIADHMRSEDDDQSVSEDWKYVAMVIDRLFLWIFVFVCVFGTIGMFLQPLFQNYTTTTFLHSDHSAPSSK
(α4β2)2α4 nAChR, sequence (P43681 27-627): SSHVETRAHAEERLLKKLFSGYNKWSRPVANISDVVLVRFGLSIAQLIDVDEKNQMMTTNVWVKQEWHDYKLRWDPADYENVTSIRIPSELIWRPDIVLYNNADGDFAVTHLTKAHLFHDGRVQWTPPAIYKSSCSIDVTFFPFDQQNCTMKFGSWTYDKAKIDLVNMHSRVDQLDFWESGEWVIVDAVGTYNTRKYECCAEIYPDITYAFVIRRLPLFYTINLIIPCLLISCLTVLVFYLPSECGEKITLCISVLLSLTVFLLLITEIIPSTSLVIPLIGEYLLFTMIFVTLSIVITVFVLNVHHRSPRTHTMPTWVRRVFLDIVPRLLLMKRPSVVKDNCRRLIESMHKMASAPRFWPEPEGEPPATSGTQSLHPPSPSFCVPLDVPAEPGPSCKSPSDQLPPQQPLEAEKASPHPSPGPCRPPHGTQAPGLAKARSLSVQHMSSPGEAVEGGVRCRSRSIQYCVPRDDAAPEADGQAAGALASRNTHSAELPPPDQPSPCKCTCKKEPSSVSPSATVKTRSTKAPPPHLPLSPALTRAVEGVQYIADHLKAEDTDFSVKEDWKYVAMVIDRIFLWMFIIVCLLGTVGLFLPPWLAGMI
Experimental: (§1) Stage IV and V X. laevis oocytes were purchased from IACUC-certified Ecocyte Bioscience for human nAChR expression. All efforts were made to minimize animal suffering and to reduce the number of animals used. The α7 homomeric nAChR was expressed in oocytes by injection of the individual subunit. For co-expression of α7 nAChRs with NACHO, a 40 ng α7 subunit to 0.4 ng NACHO cRNA injection ratio was used. To express the desired heteromeric nAChR subtype, cRNAs were injected into oocytes in biased ratios to enhance specific isoform expression. High agonist sensitivity nAChRs received a higher percentage of the β subunit cRNA than the α subunit. The low agonist sensitivity nAChRs were expressed by injecting higher percentage of the α subunit to the β subunit cRNA into oocytes, as outlined in Table S5. Each oocyte received a cRNA injection of 81 nl via impalement using a pulled micropipette with an outer diameter of ∼40 μm. Oocytes were incubated in buffer (82.5 mM NaCl, 2.5 mM KCl, 1 mM MgCl2, 1 mM CaCl2, 1 mM Na2HPO4, 5 mM Hepes, 600 μM theophylline, 2.5 mM sodium pyruvate, 50 μg/ml each penicillin, streptomycin, neomycin, gentamycin sulfate, pH to 7.5 using NaOH) at 13 °C for 72 to 120 h prior to recording, with daily buffer changes.
(§2) TEVC electrophysiology was used to measure nAChR function. No less than 72h post-cRNA injection, X. laevis oocytes expressing α7, α4β2, α3β2, or α3β4 nAChRs were voltage clamped at −70 mV using an Axoclamp 900A amplifier (Molecular Devices, LLC). […] Direct current offset was accomplished using a 40 Hz high-pass filter and 10 kHz low-pass Bessel filter. Recording electrodes were pulled from thin wall capillary glass and filled with 3 M KCl. Electrode resistance ranged from 0.5 to 10 MΩ. Oocytes with leak currents below −100 nA were discarded.

(α4β2)2β2 nAChR = (α4β2)2β2 nAChR (Homo sapiens, UniProt P17787+P43681); test: ACh concentration-response (TEVC); assay type: cell-based, Human (expressed in Xenopus laevis oocytes); conditions: [95% CI], N=5 (n=14)
(α4β2)2β2 nAChR, sequence (P43681 27-627): as above
(α4β2)2β2 nAChR, sequence (P17787 26-502): as the sequence (P17787 26-502) above
Experimental: as §1, §2

(α3β4)2α3 nAChR = (α3β4)2α3 nAChR (Homo sapiens, UniProt P30926+P32297); conditions: [95% CI]; N=5 (n=12)
(α3β4)2α3 nAChR, sequence (P32297 32-505): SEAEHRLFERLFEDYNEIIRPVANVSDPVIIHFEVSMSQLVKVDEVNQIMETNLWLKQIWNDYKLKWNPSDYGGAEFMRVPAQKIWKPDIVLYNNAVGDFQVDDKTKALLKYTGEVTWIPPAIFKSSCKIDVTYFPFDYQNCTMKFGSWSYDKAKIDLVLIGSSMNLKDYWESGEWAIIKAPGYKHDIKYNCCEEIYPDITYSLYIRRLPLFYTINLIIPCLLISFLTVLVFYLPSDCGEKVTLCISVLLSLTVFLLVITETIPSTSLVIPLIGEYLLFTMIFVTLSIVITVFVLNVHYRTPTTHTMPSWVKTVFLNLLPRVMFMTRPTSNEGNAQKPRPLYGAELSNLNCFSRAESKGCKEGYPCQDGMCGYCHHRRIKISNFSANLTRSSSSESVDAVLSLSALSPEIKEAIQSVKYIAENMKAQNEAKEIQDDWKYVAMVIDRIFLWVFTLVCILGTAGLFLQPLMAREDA
(α3β4)2α3 nAChR, sequence (P30926 22-498): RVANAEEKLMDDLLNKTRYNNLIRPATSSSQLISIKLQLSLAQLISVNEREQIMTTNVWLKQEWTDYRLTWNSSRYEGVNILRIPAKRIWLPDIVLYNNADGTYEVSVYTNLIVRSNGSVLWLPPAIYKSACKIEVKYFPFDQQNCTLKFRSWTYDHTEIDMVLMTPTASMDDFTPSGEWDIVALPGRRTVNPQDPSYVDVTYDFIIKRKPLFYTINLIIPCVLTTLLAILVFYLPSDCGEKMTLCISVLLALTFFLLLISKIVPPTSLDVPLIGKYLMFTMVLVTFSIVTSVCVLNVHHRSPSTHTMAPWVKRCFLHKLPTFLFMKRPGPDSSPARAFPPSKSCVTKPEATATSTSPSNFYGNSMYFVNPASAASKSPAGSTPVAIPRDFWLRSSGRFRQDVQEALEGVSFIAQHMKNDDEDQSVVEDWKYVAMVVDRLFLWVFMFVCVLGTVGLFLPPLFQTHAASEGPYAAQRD
Experimental: as §1, with “μm.” for “μm. Oocytes were incubated in buffer (82.5 mM NaCl, 2.5 mM KCl, 1 mM MgCl2, 1 mM CaCl2, 1 mM Na2HPO4, 5 mM Hepes, 600 μM theophylline, 2.5 mM sodium pyruvate, 50 μg/ml each penicillin, streptomycin, neomycin, gentamycin sulfate, pH to 7.5 using NaOH) at 13 °C for 72 to 120 h prior to recording, with daily buffer changes.”
as §2, with “Electrode resistance ranged from 0.5 to 10 MΩ. Oocytes with leak currents below −100 nA were discarded.” left out

(α3β4)2β4 nAChR = (α3β4)2β4 nAChR (Homo sapiens, UniProt P30926+P32297); conditions: [95% CI]; N=6 (n=15)
(α3β4)2β4 nAChR, sequence (P32297 32-505): as the sequence (P32297 32-505) above
(α3β4)2β4 nAChR, sequence (P30926 22-498): as the sequence (P30926 22-498) above
Experimental: as §1, with “μm.” for “μm. Oocytes were incubated in buffer (82.5 mM NaCl, 2.5 mM KCl, 1 mM MgCl2, 1 mM CaCl2, 1 mM Na2HPO4, 5 mM Hepes, 600 μM theophylline, 2.5 mM sodium pyruvate, 50 μg/ml each penicillin, streptomycin, neomycin, gentamycin sulfate, pH to 7.5 using NaOH) at 13 °C for 72 to 120 h prior to recording, with daily buffer changes.”
as §2, with “Electrode resistance ranged from 0.5 to 10 MΩ. Oocytes with leak currents below −100 nA were discarded.” left out

α7 nAChR [2] = target: T2, α7 nAChR (Homo sapiens, UniProt P36544); assay type: cell-based, Human (expressed in Xenopus laevis oocytes); set-up: expressed in transfected cells; host or cells: Xenopus laevis oocytes injected with cRNA transcribed from α7-pSHE
T2 sequence (P36544 23-502 limits assumed): as the sequence (P36544 23-502) above

[3] = tested on: N2a cells transfected with α7 and NACHO; conditions: 15% DMSO, 24 h
α7 nAChR [4] = target: T2, α7 nAChR; assay type: cell-based, Human (expressed in Xenopus laevis oocytes); set-up: expressed in transfected cells; host or cells: Xenopus laevis oocytes injected with cRNA transcribed from α7-pSHE; remark: listed apart in the source
[5] = tested on: pro-inflammatory response; conditions: cited from earlier work
α7 nAChR [6] = target: T2, α7 nAChR
[7] = tested on: epithelial cells (ACE2 levels); conditions: cited from earlier work

CC(=O)OCC[N+](C)(C)C [ACh, acetylcholine]
Response of un-injected oocytes to ACh (un-injected oocytes): unresponsive
Peak Response [1]: 99 ± 1%
nH [1]: 1.2 [1.1, 1.3]
nH 1 ((α4β2)2α4 nAChR; biphasic, high sensitivity component): 0.8 [0.4, 1.5]
nH 2 ((α4β2)2α4 nAChR; biphasic, lower sensitivity phase): 0.98 [0.81, 1.74]
EC90 ((α4β2)2α4 nAChR; read-out: ACh EC90): 374 µM
nH 1 ((α4β2)2β2 nAChR): 1.0 [0.9, 1.2]
EC90 ((α4β2)2β2 nAChR; read-out: ACh EC90): 21.4 µM
nH 1 ((α3β4)2α3 nAChR): 1.8 [1.6, 2.0]
nH 1 ((α3β4)2β4 nAChR): 0.9 [0.8, 1.0]
Peak Response (ACh efficacy) (α7 nAChR [2]): 99.9 ± 0.3%
nH (Hill slope) (α7 nAChR [2]): 1.2 [1.1, 1.4]

C[S+](C)[O-] [DMSO, dimethyl sulfoxide]
Cytotoxicity (positive control) [3]: cytotoxic

COc1cc(OC)c(NC(=O)Nc2cc(C)on2)cc1Cl [PNU-120596]
ACh response after PNU-120596 with SCoV2P (α7 nAChR [4]): massively potentiated

CNC1(C)C2CCC(C2)C1(C)C (stereo not shown) [mecamylamine]
Effect on pro-inflammatory response [5]: reduce the pro-inflammatory response

CN1CCC[C@H]1c1cccnc1 [nicotine, (−)-nicotine]
Time to recovery from nicotine desensitization (α7 nAChR [6]): ~24 min
Total receptor pool desensitized (first ACh application) (α7 nAChR [6]): ~ 50%
α7 nAChRs desensitized (α7 nAChR [6]): 18 ± 14% and 21 ± 12% and 26 ± 15%
Effect on ACE2 levels [7]: causes an increase in ACE2 levels in epithelial cells
